The values that follow are results of earlier work, collected in the CATMoS acute toxicity set (Mansouri et al. 2021).

Where a SMILES comes first, the peptide text is derived from it. Bridges are numbered along the chain shown (N, C = ends). [ ]: non-standard residue; d: D form. The star is where a group is joined. Octanoyl(6-Me) = CCC(C)CCCCC(=O)*; Dab = NCC[CH](N)C(=O)O

The data set in a line: rat acute oral toxicity. The conditions noted are these: in vivo. From the text: […]The data set underlying the modeling effort for this project was initially compiled by NICEATM and U.S. EPA’s CCTE. Briefly, LD50 data were collected from rat acute oral systemic toxicity tests, including limit tests, ranges/confidence intervals, and discrete LD50 values. The full data set included 21,200 LD50 entries for 15,688 substances. […] Data were reviewed to ensure that LD50 values with obvious errors in the extracted data such as unit conversion errors (e.g., comma and decimal separator misplacements) were either fixed or removed. After this review, 16,209 LD50 values remained. Many of the chemicals represented had multiple LD50 entries, requiring that a single representative value per Chemical Abstracts Service Registry Number (CASRN) identifier be defined to facilitate modeling efforts. Based on ATWG feedback and to define the representative LD50 as a protective value while accounting for the distribution across multiple LD50s, the median of the lowest quartile was computed using only discrete LD50 values (omitting limit test data and range and confidence interval data). A detailed summary of the data compilation is available online on the NICEATM webpage dedicated to the collaborative modeling project (NTP 2020).
[…][…] For categorical designations, limit test and range/confidence interval LD50 data were integrated wherever possible. As such, the number of chemicals with end point values/calls varies across the modeling end points (Table 3) based on whether chemicals had representative LD50 values and/or other data. If a chemical had both, the representative value was used to determine categorical calls rather than limit test data. Some data were useable only for certain end points and categories depending on the thresholds. For example, ranges that spanned multiple hazard categories were considered only for the binary (very toxic/nontoxic) end points and omitted from rendering a determination for hazard category assignment.
[…]The final data set comprising 11,992 chemicals was split into training and evaluation sets […], respectively. This process was performed semirandomly by ordering chemicals based on the five end points (categorical and continuous LD50 values) and partitioning every fourth record into the evaluation set accordingly. This approach was taken to ensure an equivalent distribution of the LD50 values and the different hazard categories between the training and the evaluation sets without supervised sampling of the chemicals based on structures (Figure 1A). The sources of the chemical structures were also kept equivalent between the two sets, with chemical structures obtained from DSSTox, being the highest quality, representing over 75% of each set (Figure 1B).
As usually defined, the LD50 is the dose at which mortality reaches 50%. As to `COc1ccc(OC)c2[nH]c(C(F)(F)F)nc12`, the LD50 is 60 mg/kg.
For the compound `COC(=O)c1ccccc1O`, the LD50 was 1700 mg/kg.
As to `O=C1CC[C@@]2(O)[C@H]3Cc4ccc(O)c5c4[C@@]2(CCN3CC2CC2)[C@H]1O5`, the LD50 is 1450 mg/kg.
On to `Cc1onc2c(=O)n(-c3ccccc3)nc(-c3ccccc3)c12`, for which the LD50 was 1000 mg/kg.
As to `COc1ccc(Cc2nccc3cc(OC)c(OC)cc23)cc1OC`, the LD50 is 68.8 mg/kg.
For the compound `N#CC(Cl)=C(Cl)Cl`, the LD50 is 62.5 mg/kg.
As for `Cc1nc2ccccc2c(=O)n1-c1ccc(Br)cc1`, the LD50 is 185 mg/kg.
On to `O=C(OCC(O)C1COc2ccccc2O1)N1CCOCC1` (stereo not drawn), for which the LD50 is 1500 mg/kg.
Turning to `Cc1ccc(N=CN(C)Sc2ccc(Cl)cc2)c(C)c1`, the LD50 was 320 mg/kg.
Turning to `COc1ccc2cc([C@H](C)C(=O)OCCN3CCN(Cc4ccc(N)cc4)CC3)ccc2c1`, the LD50 is 1600 mg/kg.
With `CN1CC[C@@]2(C)c3cc(OC(=O)NCCCCCCCCCCN4CCCCC4)ccc3N(C)[C@@H]12`, the LD50 was 15.3 mg/kg.
Take `CCc1ccc(C(=O)C(C)CN2CCCCC2)cc1` (stereo not drawn): the LD50 was 1000 mg/kg.
Take `NC(CCC(=O)O)C(=O)O` (racemic): the LD50 is 10000 mg/kg.
For the compound `CC1CS1` (stereo not drawn), the LD50 is 254 mg/kg.
For `FC(F)(F)c1cccc(-n2nc(OCCCN3CCCCCC3)c3cccnc32)c1`, the LD50 is 780 mg/kg.
Take `CCCCNC(=O)OCC(O)C1COc2ccccc2O1` (stereo not drawn): the LD50 is 1500 mg/kg.
`CCC1COC(Cn2cncn2)(c2ccc(Cl)cc2Cl)O1` (stereo not drawn): the LD50 is 1340 mg/kg.
Consider `Cc1ccc(N2C(=O)C=CC2=O)cc1`, for which the LD50 was 710 mg/kg.
Consider `COc1ccc(N=NN(C)C)cc1`, for which the LD50 is 347 mg/kg.
Take `ClC=C(Cl)CCl`: the LD50 is 616 mg/kg.
On to `OC[C@H]1O[C@@H]2O[C@H]3[C@H](O)[C@@H](O)[C@@H](O[C@H]4[C@H](O)[C@@H](O)[C@@H](O[C@H]5[C@H](O)[C@@H](O)[C@@H](O[C@H]6[C@H](O)[C@@H](O)[C@@H](O[C@H]7[C@H](O)[C@@H](O)[C@@H](O[C@H]8[C@H](O)[C@@H](O)[C@@H](O[C@H]1[C@H](O)[C@H]2O)O[C@@H]8CO)O[C@@H]7CO)O[C@@H]6CO)O[C@@H]5CO)O[C@@H]4CO)O[C@@H]3CO`, for which the LD50 was 18800 mg/kg.
For `CC1CCC(=O)CC1`, the LD50 was 800 mg/kg.
On to `CC(Oc1ccc(Oc2ccc(Cl)cc2Cl)cc1)C(=O)O` (stereo not drawn), for which the LD50 is 563 mg/kg.
Turning to `CON(C(=O)c1cc(C)oc1C)C1CCCCC1`, the LD50 is 3780 mg/kg.
Regarding `CC(O)CNC(C)(C)Cc1ccc(Cl)cc1` (stereo not drawn), the LD50 was 150 mg/kg.
Consider `Cc1ccc2sc(C)nc2c1`, for which the LD50 is 957 mg/kg.
As to `CCOc1ccccc1N1CCN(C(=O)CCC2CCCCC2)CC1`, the LD50 was 2420 mg/kg.
Consider `CCCCCC/C=C/C1CC(=O)OC1=O` (stereo not drawn), for which the LD50 was 1100 mg/kg.
Take `Cc1ccc(NC(=O)CF)cc1`: the LD50 was 7 mg/kg.
With `COC=CC=C(C#N)C#N`, the LD50 was 200 mg/kg.
For `CCOc1ccccc1OS(=O)(=O)NC(O)=Nc1nc(OC)cc(OC)n1`, the LD50 is 2910 mg/kg.
For the compound `CN1CC(CC(C#N)C(N)=O)CC2c3cccc4[nH]cc(c34)CC21` (stereo not drawn), the LD50 is 1000 mg/kg.
Turning to `COC(=O)CCBr`, the LD50 is 1600 mg/kg.
As for `N[C@@H](CCC(=O)O)C(=O)O`, the LD50 is 14700 mg/kg.
For `O=c1c(O)c(-c2ccc(O)c(O)c2)oc2cc(O)cc(O)c12`, the LD50 was 161 mg/kg.
For `CCN(CC)CCC1(c2ccccc2)C(=O)Oc2ccccc21` (stereo not drawn), the LD50 was 600 mg/kg.
As to `CCC1(NC(N)=O)CCCC1`, the LD50 was 950 mg/kg.
On to `CCOC(=O)c1ccccc1`, for which the LD50 is 2100 mg/kg.
Regarding `CCC1OC(C)SC1=NOC(=O)NC` (stereo not drawn), the LD50 is 15 mg/kg.
`Cc1nc2sccn2c1/C=N/NC(=O)CN(C)C`: the LD50 was 1500 mg/kg.
For `CCCC(=O)OC(=C(Cl)Cl)P(=O)(OC)OC`, the LD50 is 1100 mg/kg.
As for `Cc1ccc2c(Cl)cc(Cl)c(O)c2n1`, the LD50 is 660 mg/kg.
Consider `COc1ccc(C(OC)C2CCCCC2N2CCCCC2)cc1` (stereo not drawn), for which the LD50 was 92 mg/kg.
On to `CN(SSC(C)(C)C)C(=O)ON=C1SC(C)(C)C(=O)N1C`, for which the LD50 is 299 mg/kg.
On to `CC1CN1` (stereo not drawn), for which the LD50 was 19 mg/kg.
Turning to `CCCCCOc1ccc(Br)cc1COCCN1CCOCC1`, the LD50 is 1200 mg/kg.
Turning to `N/C(CNc1ccc(Cl)c(Cl)c1)=N/O`, the LD50 was 245 mg/kg.
As to `CCC(C)CCCCC(=O)NC(CCN)C(=O)NC(C(=O)NC(CCN)C(=O)NC1CCNC(=O)C(C(C)O)NC(=O)C(CCN)NC(=O)C(CCN)NC(=O)C(C(C)O)NC(=O)C(CC(C)C)NC(=O)C(CCN)NC1=O)C(C)O` (stereo not drawn) ({Octanoyl(6-Me)}-[Dab]T[Dab][Dab][Dab]LT[Dab][Dab]T; lactam 4-C; configuration not given here), the LD50 is 910 mg/kg.
